Test system: Pi-omega3Des
Type: cell-based, Phytophthora infestans
Conditions: FIG. 9; for desaturation of phospholipid-bound fatty acid (sn1 or sn2 position): fatty acids bound in phospholipids; for phospholipid converted by ω-3-desaturase: desaturation products also found in the neutral lipids

Row | Compound | desaturation of phospholipid-bound fatty acid (sn1 or sn2 position) | phospholipid converted by ω-3-desaturase
1 | CCCCC/C=C\C/C=C\C/C=C\CCCCCCC(=O)O [C20:3 ω-6-fatty acid, dihomo-γ-linolenic acid, reference compound] | does not differentiate between fatty acids bound at the sn1 or sn2 position | 
2 | CCCCC/C=C\C/C=C\C/C=C\C/C=C\CCCC(=O)O [arachidonic acid, reference compound] | desaturation of phospholipid-bound arachidonic acid to EPA | 
3 | phosphatidylcholine |  | converts
4 | phosphatidylethanolamine |  | converts
5 | phosphatidylinositol |  | converts
